# Assay results published in article PMC12838644, “Dihydrotanshinone as a Natural Product-Based CYP17A1 Lyase Inhibitor for Hyperandrogenic Disorders” (Biomolecules, 2026).
# Tested on: NCI-H295R, HEK-293T and RWPE-1 cells
# Experiment: alamarBlue cytotoxicity assay, across all three cell lines
# Type: cell-based
# Conditions: Homo sapiens, read-out: half-maximal inhibitory concentrations (IC50), range across all three cell lines
# Experimental: Human adrenocortical NCI-H295R cells (ATCC: CRL-2128) were purchased from ATCC and cultured in DMEM/Ham’s F-12 medium with L-glutamine and 15 mM HEPES (Thermo Fisher Scientific, Waltham, MA, USA), supplemented with 5% NU-Serum (Becton Dickinson, Franklin Lakes, NJ, USA), 0.1% insulin, transferrin, selenium (100 U/mL; Thermo Fisher Scientific, Waltham, MA, USA), and 1% penicillin (100 U/mL; Thermo Fisher Scientific, Waltham, MA, USA), and streptomycin (100 μg/mL; GIBCO, New York, NY, USA). RWPE-1 cells (ATCC: CRL-36O7) were cultured in keratinocyte serum-free media (K-SFM) supplemented with 0.05 mg/mL bovine pituitary extract and 5 ng/mL epidermal growth factor, and 1% penicillin (100 U/mL; Thermo Fisher Scientific, Waltham, MA, USA), and streptomycin (100 μg/mL; GIBCO). […] Additionally, key functional and morphological characteristics were assessed to verify their alignment with previously reported profiles.
# The alamarBlue® assay (Thermo Fisher Scientific, Waltham, MA USA) was conducted as previously described. […] Cell viability was measured using the alamarBlue® assay. […] The plates were incubated in the dark at 37 °C with 5% CO2 for 4 h, and fluorescence was measured at an excitation wavelength of 540 nm and an emission wavelength of 590 nm. Cell viability was calculated relative to the control sample treated with DMSO. […]
compound,measurement,value
"Cc1cccc2c3c(ccc12)C1=C(C(=O)C3=O)[C@@H](C)CO1 [DT, dihydrotanshinone I]",IC50,950 to 1400 nM
